Laboratory results taken from ChEMBL document CHEMBL1201862, “PubChem BioAssay data set” (2004).
The source made the active and inactive calls. Cut-off read from the data, not from the text of the source, for most assays here: actives have a measured EC50 and inactives only a lower limit.

Experiments:
[1] = NIH-3T3 fibroblast cytotoxicity, dose response, cytotoxicity control, cell-based, fluorescence, Alamar Blue, secondary assay (AID 2327); assay type: functional;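 note: NIH-3T3 mouse fibroblasts cultured with fluconazole at 8 µg/mL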
HEK293 [2] = experiment: cytotoxicity in HEK293T NF-kB-Luc cells, SAR follow-up, cytotoxicity control for NF-kB activator project, cell-based, resazurin fluorescence (AID 493251); assay type: functional; details: Homo sapiens
BJ [3] = experiment: cytotoxicity toward BJ-TERT-LT-ST fibroblasts, dose response, cell-based, RAS-independent, luminescence (AID 1935); assay type: functional; details: Homo sapiens;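 note: BJ fibroblasts immortalized with TERT plus LT and ST oncogenes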
[4] = inhibitors of intracellular T. cruzi replication, confirmation, NIH3T3 host cells, beta-gal luminescence (AID 2044); assay type: functional, cell-based;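 note: intracellular parasites grown in NIH/3T3 mouse fibroblasts as host cells; luminescent beta-galactosidase reporter signal from transgenic T. cruzi replicating inside host cells; inhibitors lower the luminescence signal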
HEK293 [5] = experiment: inhibitors of LMP1-driven NF-kB reporter, dose response, cell-based, HEK293, luciferase, cherry-pick (AID 588343); assay type: functional; details: Homo sapiens
BJ [6] = experiment: cells; assay type: functional, cell-based; details: Homo sapiens
[7] = HepG2 cell cytotoxicity, dose response, cytotoxicity control for Shn3 inhibitor project, CellTiter-Glo, cherry-picked (AID 624134); assay type: functional, cell-based
[8] = cytotoxicity toward NIH3T3 fibroblasts, dose response, counter-screen, cell-based, ATP luminescence, mouse fibroblasts (AID 2010); assay type: functional;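 note: cells exposed to compound for about 90 hours before reading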
[9] = cytotoxicity toward DRD oncogenic fibroblasts, dose response, cell-based, non-viral oncogenic, luminescence (AID 1934); assay type: functional; details: Homo sapiens
[10] = target: T1, Sentrin-specific protease 8 (Homo sapiens, UniProt Q96LD8); assay type: functional;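 note: luminescence read-out of SENP8 inhibition, dose-response confirmation following an ultra-high-throughput screen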
T1 sequence (Q96LD8 whole entry): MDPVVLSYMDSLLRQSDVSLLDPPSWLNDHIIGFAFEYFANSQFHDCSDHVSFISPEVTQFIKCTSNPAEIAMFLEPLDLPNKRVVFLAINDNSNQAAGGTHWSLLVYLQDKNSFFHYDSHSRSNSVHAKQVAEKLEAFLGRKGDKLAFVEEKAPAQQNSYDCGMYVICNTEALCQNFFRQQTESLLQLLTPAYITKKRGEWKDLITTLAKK

[11] = test system: Streptococcus sp. 'group A'; experiment: growth inhibition of control SK(-) GAS strain, dose response, counter-screen for streptokinase expression inhibitor project, luminescence, kanamycin, BacTiterGlo, confirmation (AID 1900); assay type: functional, organism-based
Caspase-3 = target: T2, Caspase-3 (Homo sapiens, UniProt P42574); assay type: functional;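 note: Dose-response selectivity test against caspase-3 for candidate inhibitors of sentrin-specific proteases (SENPs)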
T2 sequence (P42574 whole entry): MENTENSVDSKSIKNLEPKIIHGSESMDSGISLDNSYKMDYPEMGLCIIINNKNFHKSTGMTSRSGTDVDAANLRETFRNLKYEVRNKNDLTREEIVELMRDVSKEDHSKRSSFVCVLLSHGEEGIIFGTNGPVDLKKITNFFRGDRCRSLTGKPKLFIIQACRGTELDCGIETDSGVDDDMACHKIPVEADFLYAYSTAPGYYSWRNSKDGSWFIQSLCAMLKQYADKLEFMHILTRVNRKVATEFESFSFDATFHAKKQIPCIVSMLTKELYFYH

[12] = target: T3, Sentrin-specific protease 6 (Homo sapiens, UniProt Q9GZR1); assay type: functional;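 note: Luminescence-based dose-response confirmatory assay of SENP6 inhibition, following up an ultra-high-throughput screen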
T3 sequence (Q9GZR1 whole entry): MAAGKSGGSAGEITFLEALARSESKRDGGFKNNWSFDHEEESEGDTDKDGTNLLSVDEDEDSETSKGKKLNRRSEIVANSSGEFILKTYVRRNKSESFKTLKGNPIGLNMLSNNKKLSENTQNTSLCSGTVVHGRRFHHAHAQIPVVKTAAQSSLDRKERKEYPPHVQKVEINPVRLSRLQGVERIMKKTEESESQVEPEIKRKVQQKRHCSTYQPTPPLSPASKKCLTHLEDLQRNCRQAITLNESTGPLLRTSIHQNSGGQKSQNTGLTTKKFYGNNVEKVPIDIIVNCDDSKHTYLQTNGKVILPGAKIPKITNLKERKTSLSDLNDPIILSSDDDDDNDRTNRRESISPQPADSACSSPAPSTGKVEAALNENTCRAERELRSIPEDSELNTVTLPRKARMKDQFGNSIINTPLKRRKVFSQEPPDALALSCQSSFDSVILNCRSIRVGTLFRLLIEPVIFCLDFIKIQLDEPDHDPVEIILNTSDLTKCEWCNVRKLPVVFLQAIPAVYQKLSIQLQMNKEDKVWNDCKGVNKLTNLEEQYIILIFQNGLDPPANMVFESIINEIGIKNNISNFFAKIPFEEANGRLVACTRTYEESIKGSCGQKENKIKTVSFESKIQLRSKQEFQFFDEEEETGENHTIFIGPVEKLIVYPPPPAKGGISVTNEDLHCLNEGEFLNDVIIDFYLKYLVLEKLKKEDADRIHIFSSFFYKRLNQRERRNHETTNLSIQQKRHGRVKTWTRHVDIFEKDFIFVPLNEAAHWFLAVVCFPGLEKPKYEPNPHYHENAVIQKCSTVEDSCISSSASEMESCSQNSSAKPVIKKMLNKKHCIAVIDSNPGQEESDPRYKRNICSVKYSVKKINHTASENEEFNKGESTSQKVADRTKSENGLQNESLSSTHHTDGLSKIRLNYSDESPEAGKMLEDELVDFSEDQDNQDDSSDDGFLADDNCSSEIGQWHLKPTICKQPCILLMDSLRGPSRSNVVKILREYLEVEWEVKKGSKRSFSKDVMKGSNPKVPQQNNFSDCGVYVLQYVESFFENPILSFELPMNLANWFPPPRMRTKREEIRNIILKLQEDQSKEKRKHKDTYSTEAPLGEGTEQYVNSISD

[13] = target: T4, Heat shock factor protein 1 (Mus musculus, UniProt P38532); experiment: inhibition of MG132-induced HSE-luciferase signal, confirmation, cell-based, NIH3T3, luminescence, dose retest (AID 2382); assay type: functional;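 note: NIH3T3 fibroblasts with HSF1-driven luciferase reporter stressed by proteasome inhibitor MG132; luminescence from HSF1-driven luciferase expression after 8 hours of MG132 stress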
T4 sequence (P38532 whole entry): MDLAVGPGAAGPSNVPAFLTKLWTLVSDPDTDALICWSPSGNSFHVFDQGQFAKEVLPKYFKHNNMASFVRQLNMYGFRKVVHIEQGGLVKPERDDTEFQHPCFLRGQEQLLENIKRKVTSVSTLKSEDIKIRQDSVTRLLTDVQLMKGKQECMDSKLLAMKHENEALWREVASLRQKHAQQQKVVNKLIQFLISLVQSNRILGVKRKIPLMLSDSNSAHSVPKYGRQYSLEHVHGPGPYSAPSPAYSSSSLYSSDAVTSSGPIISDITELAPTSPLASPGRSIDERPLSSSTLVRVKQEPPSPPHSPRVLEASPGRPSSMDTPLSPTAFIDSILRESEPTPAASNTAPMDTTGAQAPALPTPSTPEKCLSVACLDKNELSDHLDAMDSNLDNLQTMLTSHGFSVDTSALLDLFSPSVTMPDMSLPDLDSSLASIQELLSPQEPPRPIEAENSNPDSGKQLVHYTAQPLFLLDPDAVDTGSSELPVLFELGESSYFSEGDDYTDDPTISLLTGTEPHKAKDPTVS

## CCCCC(=O)NC(c1ccc(N(CC)CC)cc1)c1ccc2cccnc2c1O (centres undefined)
[1]
  EC50: 18.1 µM (inconclusive)
HEK293 [2]
  IC50: 35 µM (inactive)
BJ [3]
  EC50: 1.79 µM (active)
[4]
  EC50: < 0.1 µM (active)
HEK293 [5]
  AC50: 5.16 µM (active)
BJ [6]
  EC50: 2.41 µM (active)
[7]
  AC50: 1.2 µM (active)
[8]
  EC50: 0.884 µM (active)
[9]
  EC50: 5.53 µM (active)

## CCOc1cccc(/C=N/NC(=S)Nc2ccccc2[N+](=O)[O-])c1O
[10]
  IC50: 12.8 µM (active)
[11]
  EC50: 0.267 µM (active)
Caspase-3
  IC50: 4.25 µM (active)
[12]
  IC50: 10.3 µM (active)
[13]
  EC50: 3.56 µM (active)
